According to PubChem BioAssay (NCI):
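Values below derive from 48-hour exposures of cells grown in 96-well plates, with endpoints linearly interpolated between the two concentrations bracketing the appropriate inhibition level. GI50 is the concentration that inhibits growth by half. Definition used: TGI = concentration required for complete inhibition of growth.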

How the values were obtained:
Assay in all cases: DTP human tumour cell line panel, 48 h
SF-539 CNS = system: SF-539 CNS
UO-31 renal = system: UO-31 renal
RPMI-8226 leukemia = system: RPMI-8226 leukemia
KM12 colon = system: KM12 colon
SR leukemia = system: SR leukemia
TK-10 renal = system: TK-10 renal
SN12C renal = system: SN12C renal
HOP-62 NSCLC = system: HOP-62 NSCLC
UACC-62 melanoma = system: UACC-62 melanoma
NCI-H226 lung = system: NCI-H226 lung

| Structure (SMILES) | GI50 (SF-539 CNS) [µM] | TGI (SF-539 CNS) [µM] | GI50 (UO-31 renal) [nM] | TGI (UO-31 renal) [µM] | GI50 (RPMI-8226 leukemia) [nM] | TGI (RPMI-8226 leukemia) [µM] | GI50 (KM12 colon) [µM] | TGI (KM12 colon) [µM] | GI50 (SR leukemia) [nM] | TGI (SR leukemia) [µM] | GI50 (TK-10 renal) [µM] | TGI (TK-10 renal) [µM] | GI50 (SN12C renal) [µM] | TGI (SN12C renal) [µM] | GI50 (HOP-62 NSCLC) [nM] | TGI (HOP-62 NSCLC) [µM] | GI50 (UACC-62 melanoma) [nM] | TGI (UACC-62 melanoma) [µM] | GI50 (NCI-H226 lung) [µM] | TGI (NCI-H226 lung) [µM] |
| --- | --- | --- | --- | --- | --- | --- | --- | --- | --- | --- | --- | --- | --- | --- | --- | --- | --- | --- | --- | --- |
| O=C(/C=C/c1ccccn1)c1ccc(OCc2nnc(-c3ccc(Cl)cc3)o2)cc1 | 1.66 | 3.09 | 1810 | 3.26 | 296 | 1.06 | 1.48 | 3.3 | 291 | 1.93 | 2.68 | 6.24 | 2.41 | 5.8 | 2260 | 5.65 | 1830 | 3.55 | 2.69 | 7.79 |
| O=C1Nc2ccccc2/C1=C\c1nc(-c2ccccc2F)n2ccccc12 | 3.1 | 11.1 | 2120 | 10.8 | 51400 | > 100 | 3.49 | 14.4 | 11000 | 29.4 | 4.05 | 14.2 | 4.32 | 17 | 2370 | 5.93 | 6320 | 25.2 | 4.78 | 21.3 |
| Cn1cc(C2=C(c3cn(CCCN)c4ccccc34)C(=O)NC2=O)c2ccccc21 | 3.44 | 6.86 | 5410 | > 18.8 | 5910 | 12.5 | 5.44 | 14.2 | 2530 | 13.8 | 4.86 | 12.8 | 4.67 | 18.6 | 6090 | 17 | 4350 | 8.05 | 5.87 | > 18 |
| COS(C)(=O)=O |  | > 2 |  | > 2 |  | > 2 |  | > 2 |  | > 2 |  | > 2 |  | > 2 |  | > 2 |  | > 2 |  | > 2 |
| COc1ccc(C2C(C#N)=C(N)Oc3c2sc2c(Br)cccc32)cc1 (configuration not stated) |  |  | 3210 | 17.7 | 2900 | 12.5 | 1.92 | 14 | 473 | 3.37 | 8.48 | 22.2 | 4 | 17 | 4480 | 17.5 | 996 | 15.4 | 6.62 | 24 |
| O=C(CC1C(=O)Nc2ccccc2S1(=O)=O)Nc1ccc(Cl)cc1 (configuration not stated) |  | 29.7 |  | 66.9 |  | 29.6 |  |  |  | 30.1 |  | 54.5 |  | > 100 |  |  |  | > 100 |  | > 100 |
| Oc1ccc(C(O)(c2ccccc2)c2ccccc2)c2ccccc12 |  | 4.62 |  | 11.6 |  |  |  | 8.05 |  | 7.27 |  | 8.73 |  | 6.87 |  | 7.16 |  | 3.61 |  | 9.8 |
| COc1cc2ncnc(Nc3ccc(Oc4ccnc(C)c4)c(C)c3)c2cc1NC(=O)CC1CCSS1 (configuration not stated) | 1.29 | > 10.7 | 853 | 2.83 | 1140 | 3.31 |  |  | 365 | 2.99 | 0.896 | 1.84 | 1.5 | > 50 | 1160 | 2.91 | 1260 | 3.71 | 1.68 | > 12.9 |
| CCCCCCCCCCCCCCCC(=O)OCCOCCOCCOCCOCCOC(=O)CCCCCCCCCCCCCCC |  |  |  | > 100 |  | > 100 |  | > 100 |  | > 100 |  | > 100 |  | > 100 |  | > 100 |  | > 100 |  | > 100 |
| C[N+](C)(C)c1cc[c]([Sn]([c]2ccc([N+](C)(C)C)cc2)([c]2ccc([N+](C)(C)C)cc2)[c]2ccc([N+](C)(C)C)cc2)cc1 | > 100 | > 100 | > 100000 | > 100 | > 100000 | > 100 | > 100 | > 100 | > 100000 | > 100 | > 100 | > 100 | > 100 | > 100 | > 100000 | > 100 | > 100000 | > 100 |  |  |
| CC1C=CC(C(N)C(=O)O)O1 (configuration not stated) |  | > 100 |  | > 100 |  | > 100 |  | > 100 |  | > 100 |  |  |  | > 100 |  | > 100 |  | > 100 |  | > 100 |
| Cc1c2ccncc2c(C)c2c1sc1ccccc12 |  | 21.1 |  |  |  | 48 |  | 31.2 |  | 8.98 |  | 48.9 |  | 23.8 |  | 21.9 |  | 18.6 |  | 42.9 |
| CCC(C)C1=C(O)[N+]2([O-])Oc3ccc(C4=C(O)C(=O)C(c5ccc(O)cc5)=C(O)C4=O)cc3OC2(C(C)CC)C(=O)N1O (configuration not stated) | 15.8 | > 100 | 22200 | > 100 | 6740 | > 100 | 40.3 | > 100 | 1250 | 7.81 | 3.41 | > 100 |  |  | 9940 | > 100 | 5680 | 65.1 | 3.81 | > 100 |
| COc1ccc(S(=O)(=O)Nc2c(/C=C\c3cc(OC)c(OC)c(OC)c3)ccc(OC)c2O)cc1 |  |  | 61.9 | 62.4 | 46.9 | 22.4 | 0.0355 | > 100 | 31.9 | 16.2 | 0.0732 | 59.1 | 0.0869 | > 100 | 39.7 | > 100 | 38.9 | > 100 | 41.3 | > 100 |
| O=C(N=c1nc(NC(=O)c2ccccc2)ss1)c1ccccc1 |  | 37.9 |  | 62.8 |  | 77.6 |  | > 100 |  | 75.4 |  | > 100 |  | 66.6 |  | > 100 |  |  |  | > 100 |
| COc1cc([N+](=O)[O-])c(S(=O)(=O)O)cc1-n1nc(C(=O)Nc2ccccc2)n[n+]1-c1cc(S(=O)(=O)[O-])c([N+](=O)[O-])cc1OC |  |  |  | > 100 |  | > 100 |  | > 100 |  | > 100 |  | > 100 |  | > 100 |  | > 100 |  | > 100 |  | > 100 |
